SMILES strings stand for the structures.

Among the data in publication PMC12519060, “The anabolic steroid stanozolol is a potent inhibitor of human MutT homolog 1” (Febs Letters, 2025) are IC50 and no inhibition values, retold here.

Experiment [1] has as its target T1, hMTH1 (human MutT homolog 1) (Homo sapiens, UniProt P36639). Nature of the experiment: modified Malachite Green assay with inorganic pyrophosphatase. Type of experiment: biochemical. Also on record: gene NUDT1; E. coli-optimised cDNA in pET28a(+), expressed in E. coli BL21(DE3); His-tag removed with thrombin; monomer.
The target of experiment [2] is T1, hMTH1 (human MutT homolog 1). Also on record: gene NUDT1. The following applies: substrate dGTP 100 μM, 6 nM hMTH1, 10 mM Mg acetate, 1% DMSO, 22 °C, active site (crystal structure, metal free) buffer, no inhibition seen, bound not given.

For the compound `C[C@]12Cc3c[nH]nc3C[C@@H]1CC[C@@H]1[C@@H]2CC[C@@]2(C)[C@H]1CC[C@]2(C)O` [stanozolol], the IC50 in experiment [1] was determined as 0.026 µM. For the compound `C[C@]12CCC(=O)C[C@@H]1CC[C@@H]1[C@@H]2CC[C@]2(C)[C@@H](O)CC[C@@H]12` [Dihydrotestosterone], in experiment [2], the no inhibition result is “while DHT did not show any inhibition of hMTH1 (Fig. S1)”.

As a reminder, the IC50 is the point on the concentration scale where inhibition reaches its midpoint.
